Values belong to the molecule of their own block, whether it stands above or below them. Active and inactive are the calls of the source. The rule behind the calls is not given here.
Legend:
[1] = tested on: MDA-MB-468; test: Antiproliferative activity against human MDA-MB-468 cells assessed as cell growth inhibition incubated for 72 hrs by MTT assay; format: functional, cell-based; conditions: MDA-MB-468, 72 h
[2] = Antiproliferative activity against human MCF-10A cells assessed as cell growth inhibition incubated for 72 hrs by MTT assay; format: toxicity, cell-based
[3] = tested on: BT-549; test: Antiproliferative activity against human BT-549 cells assessed as cell growth inhibition incubated for 72 hrs by MTT assay; format: functional, cell-based; conditions: BT-549, 72 h
[4] = Antiproliferative activity against human L02 cells assessed as cell growth inhibition incubated for 72 hrs by MTT assay; format: toxicity, cell-based
[5] = tested on: HL-60; test: Antiproliferative activity against human HL-60 cells assessed as cell growth inhibition incubated for 72 hrs by MTT assay; format: functional, cell-based; conditions: HL-60, 72 h
[6] = species on record: Homo sapiens; test: Binding affinity to recombinant PRC2 complex (unknown origin) assessed as association rate constant by surface plasmon resonance assay
[7] = Binding affinity to recombinant PRC2 complex (unknown origin) assessed as dissociation rate constant by surface plasmon resonance assay; set-up: species or system Homo sapiens
[8] = tested on: MV4-11; test: Antiproliferative activity against human MV4-11 cells assessed as cell growth inhibition incubated for 72 hrs by MTT assay; format: functional, cell-based; conditions: MV4-11, 72 h
[9] = tested on: MDA-MB-231; test: Antiproliferative activity against human MDA-MB-231 cells assessed as cell growth inhibition incubated for 72 hrs by MTT assay; format: functional, cell-based; conditions: MDA-MB-231, 72 h
[10] = Antiproliferative activity against human HK-2 cells assessed as cell growth inhibition incubated for 72 hrs by MTT assay; format: toxicity, cell-based
[11] = tested on: MCF7; test: Antiproliferative activity against human MCF7 cells assessed as cell growth inhibition incubated for 72 hrs by MTT assay; format: functional, cell-based; conditions: MCF7, 72 h
[12] = Binding affinity to recombinant PRC2 complex (unknown origin) assessed as Equilibrium dissociation constant by surface plasmon resonance assay; set-up: species or system Homo sapiens
[13] = target: T1, Protein cereblon/Histone-lysine N-methyltransferase EZH2 (Homo sapiens) (UniProt Q15910+Q96SW2); test: PROTAC activity at E3 ubiquitin ligase/EZH2 in human MDA-MB-468 cells assessed as induction of EZH2 degradation at 1 uM incubated for 12 to 48 hrs by western blot analysis; format: cell-based; conditions: time 12-48 hrs
[14] = tested on: MDA-MB-468; test: Antiproliferative activity against human MDA-MB-468 cells assessed as reduction in EdU positive cells at 0.25 to 0.75 uM incubated for 48 hrs by EdU incorporation assay; format: functional, cell-based; conditions: dose 0.25-0.75 µM
[15] = target: T1, Protein cereblon/Histone-lysine N-methyltransferase EZH2 (Homo sapiens); test: PROTAC activity at E3 ubiquitin ligase/EZH2 in human MDA-MB-468 cells assessed as increase in EZH1 expression at 0.25 to 0.75 uM incubated for 48 hrs by western blot analysis; format: cell-based; conditions: dose 0.25-0.75 µM
[16] = tested on: MDA-MB-468; test: Induction of apoptosis in human MDA-MB-468 cells assessed as increase in apoptotic cells at 0.25 to 0.75 uM incubated for 48 hrs by Annexin V-PE and 7AAD staining based flow cytometry; format: functional, cell-based; conditions: dose 0.25-0.75 µM
[17] = target: T1, Protein cereblon/Histone-lysine N-methyltransferase EZH2 (Homo sapiens); test: PROTAC activity at E3 ubiquitin ligase/EZH2 in human MDA-MB-468 cells assessed as decrease in H3K27me3 expression at 0.25 to 0.75 uM incubated for 48 hrs by western blot analysis; format: cell-based; conditions: dose 0.25-0.75 µM
[18] = tested on: MDA-MB-468; test: Induction of apoptosis in human MDA-MB-468 cells assessed as increase in Bax expression at 0.25 to 0.75 uM incubated for 48 hrs by western blot analysis; format: functional, cell-based; conditions: dose 0.25-0.75 µM
[19] = target: T1, Protein cereblon/Histone-lysine N-methyltransferase EZH2 (Homo sapiens); test: PROTAC activity at E3 ubiquitin ligase/EZH2 in human MDA-MB-468 cells assessed as decrease in CARM1 expression at 0.25 to 0.75 uM incubated for 48 hrs by western blot analysis; format: cell-based; conditions: dose 0.25-0.75 µM
[20] = tested on: MDA-MB-468; test: Induction of apoptosis in human MDA-MB-468 cells assessed as increase in reduction in mitochondrial membrane potential at 0.25 to 0.75 uM incubated for 48 hrs by JC-1 staining based flow cytometry analysis; format: functional, cell-based; conditions: dose 0.25-0.75 µM
[21] = target: T1, Protein cereblon/Histone-lysine N-methyltransferase EZH2 (Homo sapiens); test: PROTAC activity at E3 ubiquitin ligase/EZH2 in human MDA-MB-231 cells assessed as induction of SUZ12 degradation at 0.125 to 1 uM incubated for 48 hrs by western blot analysis; format: cell-based; conditions: dose 0.125-1 µM, DDE = dose-dependent effect
[22] = tested on: MDA-MB-231; test: Induction of apoptosis in human MDA-MB-231 cells assessed as increase in reduction in mitochondrial membrane potential at 0.25 to 0.75 uM incubated for 48 hrs by JC-1 staining based flow cytometry analysis; format: functional, cell-based; conditions: dose 0.25-0.75 µM
[23] = tested on: MDA-MB-468; test: Induction of apoptosis in human MDA-MB-468 cells assessed as increase in PARP expression at 0.25 to 0.75 uM incubated for 48 hrs by western blot analysis; format: functional, cell-based; conditions: dose 0.25-0.75 µM
[24] = target: T1, Protein cereblon/Histone-lysine N-methyltransferase EZH2 (Homo sapiens); test: PROTAC activity at E3 ubiquitin ligase/EZH2 in human MDA-MB-468 cells assessed as reduction on EZH2 expression at 0.75 uM incubated for 24 hrs by proteomic analysis; format: cell-based
[25] = target: T1, Protein cereblon/Histone-lysine N-methyltransferase EZH2 (Homo sapiens); test: PROTAC activity at E3 ubiquitin ligase/EZH2 in human MDA-MB-468 cells assessed as induction of EZH2 degradation at 0.125 to 1 uM incubated for 48 hrs by western blot analysis; format: cell-based; conditions: dose 0.125-1 µM, DDE = dose-dependent effect
[26] = target: T1, Protein cereblon/Histone-lysine N-methyltransferase EZH2 (Homo sapiens); test: PROTAC activity at E3 ubiquitin ligase/EZH2 in human MDA-MB-468 cells assessed as induction of EZH2 degradation at 1 uM incubated for 48 hrs by western blot analysis; format: cell-based
[27] = tested on: MDA-MB-231; test: Antiproliferative activity against human MDA-MB-231 cells assessed as colony growth inhibition at 0.25 to 0.75 uM incubated for 48 hrs by crystal violet staining method; format: functional, cell-based; conditions: dose 0.25-0.75 µM
[28] = tested on: MDA-MB-468; test: Induction of apoptosis in human MDA-MB-468 cells assessed as decrease in Bcl-2 expression at 0.25 to 0.75 uM incubated for 48 hrs by western blot analysis; format: functional, cell-based; conditions: dose 0.25-0.75 µM
[29] = target: T1, Protein cereblon/Histone-lysine N-methyltransferase EZH2 (Homo sapiens); test: PROTAC activity at E3 ubiquitin ligase/EZH2 in human MDA-MB-231 cells assessed as induction of EZH2 degradation at 0.125 to 1 uM incubated for 48 hrs by western blot analysis; format: cell-based; conditions: dose 0.125-1 µM, DDE = dose-dependent effect
[30] = tested on: MDA-MB-468; test: Induction of apoptosis in human MDA-MB-468 cells assessed as increase in cleaved caspase-3 expression at 0.25 to 0.75 uM incubated for 48 hrs by western blot analysis; format: functional, cell-based; conditions: dose 0.25-0.75 µM
[31] = target: T1, Protein cereblon/Histone-lysine N-methyltransferase EZH2 (Homo sapiens); test: PROTAC activity at E3 ubiquitin ligase/EZH2 in human MDA-MB-468 cells assessed as induction of SUZ12 degradation at 0.125 to 1 uM incubated for 48 hrs by western blot analysis; format: cell-based; conditions: dose 0.125-1 µM, DDE = dose-dependent effect
[32] = tested on: MDA-MB-468; test: Antiproliferative activity against human MDA-MB-468 cells assessed as colony growth inhibition at 0.25 to 0.75 uM incubated for 48 hrs by crystal violet staining method; format: functional, cell-based; conditions: dose 0.25-0.75 µM
[33] = tested on: MDA-MB-231; test: Induction of apoptosis in human MDA-MB-231 cells assessed as increase in apoptotic cells at 0.25 to 0.75 uM incubated for 48 hrs by Annexin V-PE and 7AAD staining based flow cytometry; format: functional, cell-based; conditions: dose 0.25-0.75 µM
[34] = target: T1, Protein cereblon/Histone-lysine N-methyltransferase EZH2 (Homo sapiens); test: PROTAC activity at E3 ubiquitin ligase/EZH2 in human MDA-MB-468 cells assessed as reduction on SUZ12 expression at 0.75 uM incubated for 24 hrs by proteomic analysis; format: cell-based
[35] = target: T1, Protein cereblon/Histone-lysine N-methyltransferase EZH2 (Homo sapiens); test: PROTAC activity at E3 ubiquitin ligase/EZH2 in human MDA-MB-231 cells assessed as induction of EED degradation at 0.125 to 1 uM incubated for 48 hrs by western blot analysis; format: cell-based; conditions: dose 0.125-1 µM, DDE = dose-dependent effect
[36] = target: T1, Protein cereblon/Histone-lysine N-methyltransferase EZH2 (Homo sapiens); test: PROTAC activity at E3 ubiquitin ligase/EZH2 in human MDA-MB-468 cells assessed as induction of EED degradation at 0.125 to 1 uM incubated for 48 hrs by western blot analysis; format: cell-based; conditions: dose 0.125-1 µM, DDE = dose-dependent effect
[37] = target: T1, Protein cereblon/Histone-lysine N-methyltransferase EZH2 (Homo sapiens); test: PROTAC activity at E3 ubiquitin ligase/EZH2 in human MDA-MB-468 cells assessed as reduction on EED expression at 0.75 uM incubated for 24 hrs by proteomic analysis; format: cell-based

T1 sequence (Q15910 whole entry, looked up): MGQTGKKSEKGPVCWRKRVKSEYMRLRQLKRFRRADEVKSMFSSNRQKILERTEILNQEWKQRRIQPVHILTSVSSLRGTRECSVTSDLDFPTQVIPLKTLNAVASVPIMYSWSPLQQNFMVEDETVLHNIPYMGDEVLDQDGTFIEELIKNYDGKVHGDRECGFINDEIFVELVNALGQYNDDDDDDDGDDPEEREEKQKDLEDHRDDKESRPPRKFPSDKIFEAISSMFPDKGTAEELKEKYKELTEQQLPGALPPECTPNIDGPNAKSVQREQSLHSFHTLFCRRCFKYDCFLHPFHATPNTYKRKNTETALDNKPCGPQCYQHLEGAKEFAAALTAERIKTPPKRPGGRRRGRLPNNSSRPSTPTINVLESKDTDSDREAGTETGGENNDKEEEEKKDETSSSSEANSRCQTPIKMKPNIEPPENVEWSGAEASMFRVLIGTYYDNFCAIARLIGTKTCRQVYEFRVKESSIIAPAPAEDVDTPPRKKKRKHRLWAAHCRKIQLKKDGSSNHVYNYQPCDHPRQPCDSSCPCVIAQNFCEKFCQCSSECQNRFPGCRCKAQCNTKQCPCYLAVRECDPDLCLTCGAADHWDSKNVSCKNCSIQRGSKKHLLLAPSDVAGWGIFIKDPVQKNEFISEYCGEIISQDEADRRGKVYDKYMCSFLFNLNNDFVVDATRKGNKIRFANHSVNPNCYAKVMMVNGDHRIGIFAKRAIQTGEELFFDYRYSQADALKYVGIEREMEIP
T1 sequence (Q96SW2 whole entry, looked up): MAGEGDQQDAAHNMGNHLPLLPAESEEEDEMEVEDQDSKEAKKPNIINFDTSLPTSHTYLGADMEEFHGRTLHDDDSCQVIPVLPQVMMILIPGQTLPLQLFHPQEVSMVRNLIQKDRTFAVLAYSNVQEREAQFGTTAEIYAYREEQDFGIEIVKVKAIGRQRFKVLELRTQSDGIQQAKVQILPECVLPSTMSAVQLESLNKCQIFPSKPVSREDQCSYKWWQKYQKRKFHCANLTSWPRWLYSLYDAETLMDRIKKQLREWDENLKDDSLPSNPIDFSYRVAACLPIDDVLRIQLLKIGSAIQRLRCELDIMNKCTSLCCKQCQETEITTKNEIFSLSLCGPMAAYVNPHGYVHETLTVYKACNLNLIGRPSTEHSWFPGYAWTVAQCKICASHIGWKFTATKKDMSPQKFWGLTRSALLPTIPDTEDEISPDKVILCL

IC50 [1]: 0.42 µM
IC50 [3]: 0.55 µM
IC50 [5]: 1.67 µM
Ka [6]: 2.6 10^6/Ms
koff [7]: 0.07172 s⁻¹
IC50 [8]: 1.02 µM
IC50 [9]: 0.64 µM
IC50 [11]: 22.1 µM
Kd [12]: 0.0275 µM
SMILES: CC[C@H](C)n1cc(C)c2c(C(=O)NCc3c(C)cc(C)[nH]c3=O)cc(-c3ccc(N4CCN(C(=O)CCCCCCCCc5cn(CCOCCOCCOCCOCCOCCOCCNc6cccc7c6C(=O)N(C6CCC(=O)NC6=O)C7=O)nn5)CC4)nc3)cc21 (some centres undefined)
IC50 at 72 h [2]: > 40 µM
IC50 at 72 h [4]: > 40 µM
IC50 at 72 h [10]: > 40 µM

Activity [13]: Active
Activity [15]: Active
IC50 [1]: 0.38 µM
Activity [17]: Active
Activity [19]: Active
IC50 [3]: 0.4 µM
Activity [21]: Dde
IC50 [5]: 1.08 µM
Ka [6]: 5.7 10^6/Ms
Activity [24]: Active
Activity [25]: Dde
Activity [26]: Active
koff [7]: 0.09231 s⁻¹
IC50 [8]: 0.74 µM
Activity [29]: Dde
Activity [31]: Dde
Activity [34]: Active
IC50 [9]: 0.57 µM
Activity [35]: Dde
Activity [36]: Dde
IC50 [11]: 18 µM
Activity [37]: Active
Kd [12]: 0.0162 µM
SMILES: Cc1cc(C)c(CNC(=O)c2cc(-c3ccc(N4CCN(C(=O)CCCCCCCCc5cn(CCOCCOCCOCCOCCOCCOCCNc6cccc7c6C(=O)N(C6CCC(=O)NC6=O)C7=O)nn5)CC4)nc3)cc3c2cnn3C(C)C)c(=O)[nH]1 (centres undefined)
Activity [14]: Active
Activity [16]: Active
IC50 at 72 h [2]: > 40 µM
Activity [18]: Active
Activity [20]: Active
IC50 at 72 h [4]: > 40 µM
Activity [22]: Active
Activity [23]: Active
Activity [27]: Active
Activity [28]: Active
Activity [30]: Active
Activity [32]: Active
Activity [33]: Active
IC50 at 72 h [10]: > 40 µM

Source: ChEMBL document CHEMBL5113418, “Discovery of precision targeting EZH2 degraders for triple-negative breast cancer” (Eur J Med Chem, 2022)
